Measured values taken from patent US9458176B2, “Tetrahydroimidazo(1,5-D)[1,4]oxazepine derivative” (Eisai R&D Management Co., Ltd., priority 2013, dated 2016).

Biological target: human mGluR2 (Homo sapiens (Human), UniProt Q14416)
Experiment: [35S]GTPγS binding assay (Affinity to mGluR2)
Type: biochemical
Conditions: cell membrane fraction of HEK293 cells stably expressing human mGluR2; glutamic acid 10 μM
Method: (Preparation of Cell Membrane Fraction of HEK293 Cells Stably Expressing Human Metabotropic Glutamate Receptor 2 (mGluR2))
HEK293 cells stably expressing human mGluR2 and human glutamate transporter SLC1A3 were cultured in a Dulbecco's modified Eagle's medium with 10% fetal bovine serum (50 units/mL of penicillin, 50 μg/mL of streptomycin, 60 μg/mL of geneticin, 400 μg/mL of hygromycin B and 2 mM of glutamine) at 37° C. under 5% CO2. Confluent cell cultures were washed twice with PBS(−), and then scraped off with a cell scraper, and subjected to centrifugal separation at 4° C. and 1500 rpm for 5 minutes for collecting cells. The centrifuged sediment (cell pellet) was homogenized in a 20 mM HEPES buffer containing 10 mM EDTA (pH 7.4) by using sonicator and centrifuged at 4° C. and 1500×g for 30 minutes. The supernatant (soluble fraction) was subjected to the centrifugal separation at 4° C. and 40,000×g for 30 minutes, and thus, insoluble fraction was obtained. After additional centrifugally washing the obtained fraction with 20 mM HEPES buffer containing 10 mM EDTA (pH 7.4), the pellet was centrifugally suspended with a 20 mM HEPES buffer containing 0.1 mM EDTA, and the cell membrane fraction was obtained by the centrifugal separation at 4° C. and 40,000×g for 30 minutes. The thus obtained cell membrane fraction was suspended in a 20 mM HEPES buffer containing 0.1 mM EDTA in a protein concentration of 3 mg/mL, which was stored at −80° C.
([^35S]GTPγS Binding Assay)
The frozen cell membrane fraction prepared as described above was thawed before use, and the resultant was diluted with a buffer for a binding assay (final concentrations: 20 mM HEPES, 100 mM NaCl, 1 mM MgCl2, 3 μM GDP, 300 μg/mL saponin, 0.1% BSA). The compound of each example was added to a cell membrane fraction containing 1.8 to 3 μg/assay of membrane protein on a plate, followed by incubation at room temperature for 30 minutes. Thereafter, with glutamic acid (in a final concentration of 10 μM) added thereto, incubation was performed at room temperature for 15 minutes, and thereafter, [^35S]GTPγS (in a final concentration of 0.8 kBq) and 588 μg WGA-SPA beads were added thereto, followed by incubation at room temperature for 1 hour. After the incubation, the plate was subjected to the centrifugal separation at 2,500 rpm and room temperature, and then, membrane cell binding radioactivity was measured with a top count.
A [^35S]GTPγS binding amount obtained by performing the above-described reaction in the absence of glutamic acid was defined as nonspecific binding, and a difference from a [^35S]GTPγS binding amount obtained in the presence of glutamic acid was defined as specific binding. On the basis of ratios of inhibiting the specific binding at various concentrations of the compounds of the respective examples, inhibition curves were obtained. Concentrations of the compounds of the respective examples at which the specific [^35S]GTPγS binding amount was suppressed by 50% (IC50 values) were calculated on the basis of the inhibition curves and shown in Tables 8 and 9.

human mGluR2, sequence (Q14416 19-872): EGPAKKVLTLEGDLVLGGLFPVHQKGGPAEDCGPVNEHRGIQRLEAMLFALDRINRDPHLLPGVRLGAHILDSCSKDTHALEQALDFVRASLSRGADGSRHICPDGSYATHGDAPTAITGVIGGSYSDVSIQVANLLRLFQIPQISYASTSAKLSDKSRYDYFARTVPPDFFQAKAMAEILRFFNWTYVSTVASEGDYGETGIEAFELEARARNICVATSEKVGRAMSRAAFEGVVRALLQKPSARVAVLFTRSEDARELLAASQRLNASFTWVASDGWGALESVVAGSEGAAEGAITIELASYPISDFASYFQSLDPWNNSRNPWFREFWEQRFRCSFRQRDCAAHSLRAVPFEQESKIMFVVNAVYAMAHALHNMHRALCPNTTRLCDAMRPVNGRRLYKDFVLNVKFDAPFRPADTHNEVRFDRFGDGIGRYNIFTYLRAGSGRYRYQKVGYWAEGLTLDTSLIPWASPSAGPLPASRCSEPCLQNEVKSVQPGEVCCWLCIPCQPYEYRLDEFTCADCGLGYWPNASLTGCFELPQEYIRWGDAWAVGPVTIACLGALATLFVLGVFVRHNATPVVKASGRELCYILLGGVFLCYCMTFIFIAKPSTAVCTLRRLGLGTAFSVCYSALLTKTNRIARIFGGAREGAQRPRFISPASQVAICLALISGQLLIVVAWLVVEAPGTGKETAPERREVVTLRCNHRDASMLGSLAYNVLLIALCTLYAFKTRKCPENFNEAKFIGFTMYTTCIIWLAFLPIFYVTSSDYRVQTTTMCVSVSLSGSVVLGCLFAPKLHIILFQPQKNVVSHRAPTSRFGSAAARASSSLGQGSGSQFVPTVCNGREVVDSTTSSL

Compared with COc1cc(-c2nc(-c3ccnc(C)c3)c3n2CCOCC3)ccc1C(F)(F)F [Example 123], COc1cc(-c2nc(-c3ccnc(C)c3)c3n2C[C@@H](CF)OCC3)ccc1C(F)(F)F [Example 41, (S)-6-(fluoromethyl)-3-(3-methoxy-4-(trifluoromethyl)phenyl)-1-(2-methylpyridin-4-yl)-5,6,8,9-tetrahydroimidazo[1,5-d][1,4]oxazepine] is 8.8-fold lower in IC50: 36 nM for the first, 4.1 nM for the second. The second is the more potent here.

Cc1cc(-c2nc(-c3ccc(OC(F)F)c(C)c3)n3c2CCO[C@H](CF)C3)cc(C)n1 [Example 27, (S)-3-(4-(difluoromethoxy)-3-methylphenyl)-1-(2,6-dimethylpyridin-4-yl)-6-(fluoromethyl)-5,6,8,9-tetrahydroimidazo[1,5-d][1,4]oxazepine] and Cc1cc(-c2nc(-c3ccc(OC4CC4)c(C)c3)n3c2CCO[C@H](CF)C3)cc(C)n1 [Example 22, (S)-3-(4-cyclopropoxy-3-methylphenyl)-1-(2,6-dimethylpyridin-4-yl)-6-(fluoromethyl)-5,6,8,9-tetrahydroimidazo[1,5-d][1,4]oxazepine] are within 1.5-fold of each other in IC50: 3.5 nM for the first, 4.1 nM for the second.

Going from COc1cc(-c2nc(-c3cc(C)nc(C(F)F)c3)c3n2C[C@@H](CF)OCC3)ccc1C [Example 81] to COc1cc(-c2nc(-c3cc(C)nc(C)c3)c3n2C[C@@H](CF)OCC3)ccc1C [Example 71], the IC50 rises from 7.1 nM to 18.9 nM (2.7-fold). The first is the more potent here.

Compared with Cc1cc(-c2nc(-c3ccc(C(F)(F)F)c(Cl)c3)n3c2CCO[C@H](C)C3)ccn1 [Example 132], Cc1cc(-c2nc(-c3ccc(C(F)(F)F)c(Cl)c3)n3c2CCO[C@H](C)C3)cc(C)n1 [Example 129] is 2.1-fold lower in IC50: 33.3 nM for the first, 15.7 nM for the second. The second is the more potent here.

First: Cc1cc(-c2nc(-c3ccc(Cl)c(C(F)F)c3)n3c2CCO[C@H](C)C3)cc(C)n1 [Example 131]
Second: Cc1cc(-c2nc(-c3ccc(Cl)c(C(F)F)c3)n3c2CCOCC3)cc(C)n1 [Example 125]
The IC50 of the first is 1.5-fold higher: 25.5 nM for the first, 16.5 nM for the second.

Going from Cc1cc(-c2nc(-c3ccc(F)c(OCC4CCC4)c3)n3c2CCO[C@H](C)C3)ccn1 [Example 100] to Cc1cc(-c2nc(-c3ccc(F)c(OCC4CCC4)c3)n3c2CCO[C@H](C)C3)cc(C)n1 [Example 98], the IC50 falls from 25.3 nM to 3.1 nM (8.2-fold). The second is the more potent here.

Going from COc1cc(-c2nc(-c3cc(C)nc(C)c3)c3n2CCOCC3)ccc1OC(F)F [Example 127] to Cc1cc(-c2nc(-c3ccc(Cl)c(C(F)(F)F)c3)n3c2CCOCC3)cc(C)n1 [Example 108], the IC50 rises from 12.1 nM to 19.2 nM (1.6-fold). The first is the more potent here.

First: COc1cc(-c2nc(-c3ccc(Cl)c(OC)c3)n3c2CCO[C@H](C)C3)cc(C)n1 [Example 57]
Second: COc1cc(-c2nc(-c3cc(C)nc(CF)c3)c3n2C[C@@H](C)OCC3)ccc1Cl [Example 13, (R)-3-(4-chloro-3-methoxyphenyl)-1-(2-(fluoromethyl)-6-methylpyridin-4-yl)-6-methyl-5,6,8,9-tetrahydroimidazo[1,5-d][1,4]oxazepine]
The IC50 of the first is 5-fold higher: 28.5 nM for the first, 5.7 nM for the second.

Cc1cc(-c2nc(-c3ccc(OCc4ccccc4)c(F)c3)n3c2CCOCC3)cc(C)n1 [Example 49] and Cc1cc(-c2nc(-c3ccc(C(F)(F)F)c(Cl)c3)n3c2CCOCC3)cc(C)n1 [Example 109] are within 1.5-fold of each other in IC50: 11.4 nM for the first, 9.1 nM for the second.

Going from COc1cc(-c2nc(-c3cc(C)nc(CF)c3)c3n2C[C@@H](C)OCC3)ccc1C [Example 90] to COc1cc(-c2nc(-c3cc(C)nc(C)c3)c3n2C[C@@H](C)OCC3)ccc1C [Example 53], the IC50 rises from 12.7 nM to 21.3 nM (1.7-fold).

First: Cc1cc(-c2nc(-c3cccc(Cl)c3)n3c2CCO[C@H](C)C3)cc(C)n1 [Example 62]
Second: Cc1cc(-c2nc(-c3ccc(C(F)(F)F)c(C)c3)n3c2CCO[C@H](C)C3)cc(C)n1 [Example 124]
The IC50 of the first is 8.4-fold higher: 37.7 nM for the first, 4.5 nM for the second.

COc1cc(-c2nc(-c3ccnc(CF)c3)c3n2C[C@@H](C)OCC3)ccc1Cl [Example 12, (R)-3-(4-chloro-3-methoxyphenyl)-1-(2-(fluoromethyl)pyridin-4-yl)-6-methyl-5,6,8,9-tetrahydroimidazo[1,5-d][1,4]oxazepine] and Cc1cc(-c2nc(-c3ccc(Cl)c(F)c3)n3c2CCO[C@H](C)C3)ccn1 [Example 58] are within 1.5-fold of each other in IC50: 28.3 nM for the first, 41.8 nM for the second.

CCc1ccc(-c2nc(-c3ccnc(C)c3)c3n2C[C@@H](C)OCC3)cc1OC [Example 101] and Cc1cc(-c2nc(-c3ccc(OC(F)F)c(C)c3)n3c2CCO[C@H](C)C3)ccn1 [Example 15, (R)-3-(4-(difluoromethoxy)-3-methylphenyl)-6-methyl-1-(2-methylpyridin-4-yl)-5,6,8,9-tetrahydroimidazo[1,5-d][1,4]oxazepine] are within 1.5-fold of each other in IC50: 7.6 nM for the first, 7.4 nM for the second.

COc1cc(-c2nc(-c3cc(C)nc(CF)c3)c3n2C[C@@H](CF)OCC3)ccc1Cl [Example 91] and CC[C@@H]1Cn2c(-c3ccc(Cl)c(OC)c3)nc(-c3cc(C)nc(C)c3)c2CCO1 [Example 77] are within 1.5-fold of each other in IC50: 16.1 nM for the first, 11.5 nM for the second.

COc1cc(-c2nc(-c3cc(C)nc(C)c3)c3n2C[C@@H](CF)OCC3)ccc1C(F)F [Example 28, (S)-3-(4-(difluoromethyl)-3-methoxyphenyl)-1-(2,6-dimethylpyridin-4-yl)-6-(fluoromethyl)-5,6,8,9-tetrahydroimidazo[1,5-d][1,4]oxazepine] and Cc1cc(-c2nc(-c3ccc(F)c(OCC4CC4)c3)n3c2CCO[C@H](C)C3)cc(C)n1 [Example 6, (R)-3-(3-cyclopropylmethoxy-4-fluorophenyl)-1-(2,6-dimethylpyridin-4-yl)-6-methyl-5,6,8,9-tetrahydroimidazo[1,5-d][1,4]oxazepine] are within 1.5-fold of each other in IC50: 16.2 nM for the first, 13 nM for the second.

Compound C[C@@H]1Cn2c(-c3ccc(OC(F)(F)F)cc3)nc(-c3ccnc(CF)c3)c2CCO1 [Example 85] has an IC50 of 29.7 nM.

Same assay, conditions: cell membrane fraction of HEK293 cells stably expressing human mGluR2; glutamic acid 10 μM; inhibition of specific [35S]GTPγS binding

Cc1cc(-c2nc(-c3ccc(OC(F)(F)F)c(C#N)c3)n3c2CCO[C@H](C)C3)ccn1 [Example 169] and Cc1cc(-c2nc(-c3ccc(OC(F)(F)F)c(C#N)c3)n3c2CCO[C@H](CF)C3)ccn1 [Example 196] are within 1.5-fold of each other in IC50: 4.6 nM for the first, 3.8 nM for the second.

Compared with Cc1cc(-c2nc(-c3ccc(OC(F)(F)F)c(C)c3)n3c2CCO[C@H](CF)C3)ccn1 [Example 162], Cc1cc(-c2nc(-c3ccc(OC(F)(F)F)c(F)c3)n3c2CCO[C@H](CF)C3)ccn1 [Example 166] is 3-fold higher in IC50: 5 nM for the first, 15.2 nM for the second.

Going from COc1ccc(-c2nc(-c3cc(C)nc(C)c3)c3n2C[C@@H](CF)OCC3)cc1OC(F)(F)F [Example 175] to Cc1cc(-c2nc(-c3ccc(OC(F)(F)F)c(F)c3)n3c2CCO[C@H](CF)C3)cc(C)n1 [Example 165], the IC50 falls from 18.5 nM to 9.4 nM (2-fold). The second is the more potent here.

COc1cc(-c2nc(-c3cc(C)nc(C)c3)c3n2C[C@@H](C)OCC3)ccc1OC(F)F [Example 148] and Cc1cc(-c2nc(-c3ccc(F)c(OC(F)F)c3)n3c2CCO[C@H](C)C3)cc(C)n1 [Example 184] are within 1.5-fold of each other in IC50: 9.6 nM for the first, 13.7 nM for the second.

COc1cc(-c2nc(-c3ccnc(C)c3)c3n2C[C@@H](CF)OCC3)ccc1C(F)F [Example 160] and Cc1cc(-c2nc(-c3ccc(F)c(C(F)(F)F)c3)n3c2CCO[C@H](CF)C3)ccn1 [Example 174] are within 1.5-fold of each other in IC50: 24.1 nM for the first, 24.3 nM for the second.

Cc1cc(-c2nc(-c3ccc(OC(C)C)c(C)c3)n3c2CCO[C@H](CF)C3)cc(C)n1 [Example 244] and Cc1cc(-c2nc(-c3ccc(OC(C)C)c(C)c3)n3c2CCO[C@H](C)C3)cc(C)n1 [Example 242] are within 1.5-fold of each other in IC50: 1.8 nM for the first, 2.4 nM for the second.

COc1cc(-c2nc(-c3ccnc(C)c3)c3n2C[C@@H](C)OCC3)ccc1F [Example 141] and Cc1cc(-c2nc(-c3ccc(F)c(Cl)c3)n3c2CCO[C@H](C)C3)ccn1 [Example 145] are within 1.5-fold of each other in IC50: 51.9 nM for the first, 45.5 nM for the second.

Compared with CCOc1ccc(-c2nc(-c3cc(C)nc(C)c3)c3n2CCOCC3)cc1Cl [Example 216], Cc1cc(-c2nc(-c3ccc(OC4COC4)c(Cl)c3)n3c2CCO[C@H](C)C3)cc(C)n1 [Example 232] is 4.9-fold lower in IC50: 48 nM for the first, 9.7 nM for the second.

Cc1cc(-c2nc(-c3ccc(OC(F)F)c(C)c3)n3c2CCO[C@H](C)C3)cc(CF)n1 [Example 199] and Cc1cc(-c2nc(-c3ccc(OC(F)(F)F)c(C#N)c3)n3c2CCO[C@H](CF)C3)cc(C)n1 [Example 195] are within 1.5-fold of each other in IC50: 5.2 nM for the first, 3.7 nM for the second.

Cc1cc(-c2nc(-c3ccc(Cl)c(C(F)(F)F)c3)n3c2CCO[C@H](C)C3)ccn1 [Example 152] gave an IC50 of 14.5 nM.
